Reference: patent US10570125B2, “(Cyano-dimethyl-methyl)-isoxazoles and -[1,3,4]thiadiazoles” (Centrexion Therapeutics Corporation, priority 2013, dated 2020)

Assays:
human CB1R = human CB1R (Homo sapiens (Human), UniProt P21554); experiment: CB1 cAMP (assay 2); type: cell-based; details: CHO cells expressing human CB1R; inhibition of forskolin-stimulated cAMP
human MDR1 P-gp = human MDR1 P-gp (Homo sapiens (Human), UniProt P08183); experiment: MDCK assay: efflux in MDCK-MDR1 cell monolayers (assay 3); type: in vitro ADME; details: pH 7.4, 37° C.
Chain of human MDR1 P-gp (P08183 whole entry): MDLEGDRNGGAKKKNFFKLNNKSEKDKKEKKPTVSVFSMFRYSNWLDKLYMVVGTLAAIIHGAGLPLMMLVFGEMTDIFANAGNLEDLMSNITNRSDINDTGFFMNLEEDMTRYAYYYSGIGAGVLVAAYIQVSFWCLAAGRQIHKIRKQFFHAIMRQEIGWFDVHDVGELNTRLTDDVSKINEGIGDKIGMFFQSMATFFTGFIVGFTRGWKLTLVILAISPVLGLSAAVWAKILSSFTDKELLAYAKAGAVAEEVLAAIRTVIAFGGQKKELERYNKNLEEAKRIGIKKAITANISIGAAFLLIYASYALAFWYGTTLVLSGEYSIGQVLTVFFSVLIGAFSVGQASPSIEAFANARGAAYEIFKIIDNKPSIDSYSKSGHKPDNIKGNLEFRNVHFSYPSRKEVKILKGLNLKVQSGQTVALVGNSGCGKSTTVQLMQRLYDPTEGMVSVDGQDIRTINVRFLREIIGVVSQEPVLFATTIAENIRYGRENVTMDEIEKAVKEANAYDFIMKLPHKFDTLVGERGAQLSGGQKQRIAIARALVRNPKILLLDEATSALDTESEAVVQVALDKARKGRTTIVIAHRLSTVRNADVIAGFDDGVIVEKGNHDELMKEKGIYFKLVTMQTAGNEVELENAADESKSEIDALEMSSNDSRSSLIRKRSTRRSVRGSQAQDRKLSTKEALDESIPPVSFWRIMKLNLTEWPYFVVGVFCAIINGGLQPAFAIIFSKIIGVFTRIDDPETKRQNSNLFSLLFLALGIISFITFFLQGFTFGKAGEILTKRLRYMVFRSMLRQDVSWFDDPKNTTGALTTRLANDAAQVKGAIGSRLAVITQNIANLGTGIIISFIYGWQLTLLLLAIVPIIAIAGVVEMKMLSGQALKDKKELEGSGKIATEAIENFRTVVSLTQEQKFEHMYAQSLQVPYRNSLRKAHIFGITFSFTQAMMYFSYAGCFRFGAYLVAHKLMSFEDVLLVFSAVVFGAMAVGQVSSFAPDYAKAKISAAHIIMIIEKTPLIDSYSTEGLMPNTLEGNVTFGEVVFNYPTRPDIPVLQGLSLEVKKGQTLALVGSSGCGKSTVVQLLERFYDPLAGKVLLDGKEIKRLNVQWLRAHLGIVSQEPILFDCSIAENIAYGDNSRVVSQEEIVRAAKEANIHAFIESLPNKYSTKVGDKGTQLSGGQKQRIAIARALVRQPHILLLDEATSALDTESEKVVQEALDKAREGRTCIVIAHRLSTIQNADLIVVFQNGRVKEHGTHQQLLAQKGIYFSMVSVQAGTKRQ
Procedure: C. Assessment of Efflux in Madin-Darby Canine Kidney Cells Transfected with the Human MDR1 Gene (MDCK Assay) (Assay 3)
Apparent permeability coefficients (PE) of the compounds across the MDCK-MDR1 cell monolayers are measured (pH 7.4, 37° C.) in apical-to-basal (AB) and basal-to-apical (BA) transport direction. AB permeability (PEAB) represents drug absorption from the blood into the brain and BA permeability (PEBA) drug efflux from the brain back into the blood via both passive permeability as well as active transport mechanisms mediated by efflux and uptake transporters that are expressed on the MDCK-MDR1 cells, predominantly by the overexpressed human MDR1 P-gp. The compounds are assigned to permeability/absorption classes by comparison of the AB permeabilities with the AB permeabilities of reference compounds with known in vitro permeability and oral absorption in the human. Identical or similar permeabilities in both transport directions indicate passive permeation, vectorial permeability points to additional active transport mechanisms. Higher PEBA than PEAB indicates the involvement of active efflux mediated by MDR1 P-gp. Active transport is concentration-dependently saturable. MDCK-MDR1 cells (1-2×10e5 cells/1 cm2 area) are seeded on filter inserts (Costar transwell polycarbonate or PET filters, 0.4 μm pore size) and cultured (DMEM) for 7 days. […]

Chain of human CB1R (P21554 whole entry): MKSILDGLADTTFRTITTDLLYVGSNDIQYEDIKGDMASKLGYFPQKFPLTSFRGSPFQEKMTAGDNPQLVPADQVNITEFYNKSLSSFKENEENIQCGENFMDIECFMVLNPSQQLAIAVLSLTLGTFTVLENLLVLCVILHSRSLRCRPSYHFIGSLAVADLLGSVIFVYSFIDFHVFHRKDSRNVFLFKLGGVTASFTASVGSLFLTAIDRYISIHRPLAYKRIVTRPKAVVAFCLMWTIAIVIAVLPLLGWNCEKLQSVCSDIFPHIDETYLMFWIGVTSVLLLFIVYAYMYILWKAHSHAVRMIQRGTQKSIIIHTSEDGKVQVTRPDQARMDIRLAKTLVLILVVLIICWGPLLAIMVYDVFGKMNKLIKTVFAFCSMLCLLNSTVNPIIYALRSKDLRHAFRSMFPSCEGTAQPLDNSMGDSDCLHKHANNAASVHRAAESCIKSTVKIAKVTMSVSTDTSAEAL

| SMILES | EC50 (human CB1R) [µM] | MDCK efflux ratio (BA/AB) (human MDR1 P-gp) | efflux ratio (human MDR1 P-gp; dog, read-out: MDCK efflux ratio (BA/AB)) |
| --- | --- | --- | --- |
| CC(C)(O)c1cc(NC(=O)C(C)(C)S(=O)(=O)CCCC(F)(F)F)on1 [Example 134 in WO2010036630] | 26 | 3.2 | – |
| CC(C)(CO)c1cc(NC(=O)C(C)(C)S(=O)(=O)CCCC(F)(F)F)on1 [Example 7 WO2010036630] | 28 | – | 6.9 |
